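The compound was tested at five concentrations on cells cultured in 96-well plates, with a 48-hour exposure period. The concentration for full growth arrest is given as TGI.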
Tests used:
Experiment in all cases: DTP human tumour cell line panel, 48 h
786-0 renal = tested on: 786-0 renal
CCRF-CEM leukemia = tested on: CCRF-CEM leukemia
EKVX NSCLC = tested on: EKVX NSCLC
HCC-2998 colon = tested on: HCC-2998 colon
HOP-62 NSCLC = tested on: HOP-62 NSCLC
HT29 colon = tested on: HT29 colon
M14 melanoma = tested on: M14 melanoma
MDA-N = tested on: MDA-N
MOLT-4 leukemia = tested on: MOLT-4 leukemia
OVCAR-5 ovarian = tested on: OVCAR-5 ovarian
PC-3 prostate = tested on: PC-3 prostate
SF-268 CNS = tested on: SF-268 CNS
SF-295 CNS = tested on: SF-295 CNS
SK-MEL-2 melanoma = tested on: SK-MEL-2 melanoma
U251 CNS = tested on: U251 CNS
UACC-62 melanoma = tested on: UACC-62 melanoma
MDA-MB-231 breast = tested on: MDA-MB-231 breast
NCI-H226 lung = tested on: NCI-H226 lung
TK-10 renal = tested on: TK-10 renal
HOP-92 NSCLC = tested on: HOP-92 NSCLC

Compound	TGI (786-0 renal)	TGI (CCRF-CEM leukemia)	TGI (EKVX NSCLC)	TGI (HCC-2998 colon)	TGI (HOP-62 NSCLC)	TGI (HT29 colon)	TGI (M14 melanoma)	TGI (MDA-N)	TGI (MOLT-4 leukemia)	TGI (OVCAR-5 ovarian)	TGI (PC-3 prostate)	TGI (SF-268 CNS)	TGI (SF-295 CNS)	TGI (SK-MEL-2 melanoma)	TGI (U251 CNS)	TGI (UACC-62 melanoma)	TGI (MDA-MB-231 breast)	TGI (NCI-H226 lung)	TGI (TK-10 renal)	TGI (HOP-92 NSCLC)
CCN(CC)c1ccc2cc(-c3nnc(-c4ccccc4O)o3)c(=O)oc2c1	21.9 µM	8.63 µM	43.4 µM	72.6 µM	18.5 µM	26.3 µM	24.3 µM	30.7 µM	25.9 µM	35 µM	22.4 µM	28.3 µM	29.7 µM	30.2 µM	21 µM	23.4 µM				
O=C(N/N=C/c1ccccc1O)c1ccccc1Nc1ccccc1C(=O)N/N=C/c1ccccc1O	> 24.2 µM	> 100 µM	> 100 µM	> 100 µM	> 20.7 µM	4.99 µM	6.35 µM	> 100 µM		> 100 µM	> 100 µM	2.28 µM	> 100 µM	> 100 µM	> 100 µM	> 100 µM	> 100 µM	3.79 µM	> 100 µM	
C[C@@H]1C2=CC[C@@]3(C)C(CCC3[C@H](C)[C@H]3C[C@@]4(C)O[C@@](c5cccnc5)(O3)OC4(C)C)[C@@H]2C2OC2[C@@]12CCC(=O)O2 (stereo partly specified)	> 100 µM	> 100 µM		> 100 µM	> 100 µM	> 100 µM	60.6 µM			> 100 µM		> 100 µM	> 100 µM	58.6 µM	> 100 µM	> 100 µM			> 100 µM	76.9 µM
NCCCCC(=O)c1cccnc1	> 100 µM	> 100 µM	> 100 µM		> 100 µM	> 100 µM	> 100 µM		> 100 µM	> 100 µM		> 100 µM	> 100 µM	> 100 µM	> 100 µM	> 100 µM			> 100 µM	> 100 µM
Cc1cc(=O)[nH]c(NNC(C#N)c2c(O)ccc3ccccc23)n1 (stereo unspecified)	79.8 µM	> 100 µM			73.8 µM	88.4 µM	15.6 µM		48.6 µM	82.7 µM		40.7 µM	> 100 µM	27.8 µM	43.3 µM	10.1 µM		17.6 µM	65.8 µM	79.6 µM
CCOC(=O)[C@H]1Nc2ccc([N+](=O)[O-])cc2C2c3ccccc3CC21 (stereo partly specified)	43.9 µM	43.8 µM		44.2 µM	39 µM	35.4 µM	34.3 µM		69.1 µM	70.4 µM		38.5 µM	31.2 µM	72.3 µM	33.1 µM	30.6 µM		55.1 µM	77.3 µM	
COc1ccc2c(c1)CC1c3c(ccc(OC)c3O)CC2N1C (stereo unspecified)	> 73.3 µM	80.6 µM	> 84.3 µM	30.8 µM	> 100 µM	57.5 µM	32 µM		73.8 µM	> 100 µM		> 100 µM	47.1 µM	37.1 µM	> 59.3 µM	> 100 µM		> 100 µM	> 100 µM	70.9 µM
O=c1c(NO)c([N+](=O)[O-])cnn1-c1ccccc1	12.7 µM	2.8 µM	29.8 µM	9.86 µM	23.1 µM	6.14 µM	4.09 µM	4.02 µM	10.5 µM	14 µM	2.97 µM	34.2 µM	27 µM	31.4 µM	8.07 µM	10.8 µM		16.5 µM	33.2 µM	13.9 µM
O=S(=O)([O-])[O-].[Cl-].[NH2-].[NH2-].[NH2-].[NH2-].[Ru+3].c1ccncc1	> 100 µM	> 100 µM	> 100 µM	> 100 µM	> 100 µM	> 100 µM	> 100 µM		> 100 µM	> 100 µM		> 100 µM	> 100 µM	> 100 µM	> 100 µM	> 100 µM		> 100 µM	> 100 µM	> 100 µM
Cc1nn2c(C(=O)N/N=C/c3ccc([N+](=O)[O-])cc3)c(C)nc2s1	> 100 µM	> 100 µM	> 100 µM	> 100 µM	> 100 µM	> 100 µM	> 100 µM	> 100 µM	> 100 µM	> 100 µM		> 100 µM	> 100 µM		53.5 µM	> 100 µM	49.4 µM	> 100 µM	> 100 µM	> 100 µM
COC1=CC(=O)c2c(c(COP(=O)(N(C)CCBr)N(C)CCBr)cn2C)C1=O	0.349 µM	1.78 µM	0.578 µM	0.192 µM	0.776 µM	0.222 µM	0.259 µM	0.274 µM	> 100 µM	0.564 µM	7.02 µM	1.75 µM	0.366 µM	0.315 µM	0.448 µM	0.272 µM	1.07 µM		0.496 µM	
NC(=O)N/N=C(/Cc1nc2ccc(C(=O)c3ccccc3)cc2[nH]c1=O)C(=O)Nc1ccc(C(F)(F)F)cc1[N+](=O)[O-]	> 100 µM	> 100 µM	> 100 µM	> 100 µM	> 100 µM	> 100 µM	> 100 µM		> 100 µM	> 100 µM		> 100 µM	> 100 µM	> 100 µM	> 100 µM	> 100 µM			> 100 µM	> 100 µM
O=C(CN1CCOCC1)c1ccc2c(c1)oc(=O)n2CCN1CCCC1	> 100 µM	> 100 µM	> 100 µM		> 100 µM	> 100 µM	> 100 µM	> 100 µM	> 100 µM	> 100 µM	> 100 µM	> 100 µM	> 100 µM	> 100 µM	> 100 µM	> 100 µM	> 100 µM	> 100 µM	> 100 µM	

— PubChem BioAssay (NCI)
